{"source": "patent US6835382B2", "about": "“Ii peptide therapeutics to enhance antigen presentation” (University of Massachusetts, priority 1996, dated 2004)", "key": {"[1]": {"target": "T1, murine E^d MHC class II allele (Mus musculus, UniProt P01904+P01915)", "T1 sequence (P01904 26-255)": "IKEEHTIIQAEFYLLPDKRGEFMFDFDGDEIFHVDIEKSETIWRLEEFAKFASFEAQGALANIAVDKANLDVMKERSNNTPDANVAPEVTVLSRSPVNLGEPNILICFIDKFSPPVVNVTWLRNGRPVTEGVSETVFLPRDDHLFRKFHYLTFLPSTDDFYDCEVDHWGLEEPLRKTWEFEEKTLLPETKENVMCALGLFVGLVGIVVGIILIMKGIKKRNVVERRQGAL", "T1 sequence (P01915 27-264 limits assumed)": "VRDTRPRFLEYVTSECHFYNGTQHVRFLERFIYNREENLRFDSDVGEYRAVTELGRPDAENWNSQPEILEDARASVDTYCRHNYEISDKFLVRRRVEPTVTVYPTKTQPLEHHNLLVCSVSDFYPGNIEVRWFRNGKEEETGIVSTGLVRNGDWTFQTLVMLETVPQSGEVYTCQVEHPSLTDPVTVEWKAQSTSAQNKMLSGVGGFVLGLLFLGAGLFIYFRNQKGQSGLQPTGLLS", "assay": "simultaneous assay, E^d allele (A20 APC, G28.C9 T hybridoma, HEL106-116; HT-2 [3H]TdR readout)", "assay_type": "cell-based", "design": "The A20 and CH27 B cell lymphoma lines express H-2^d and H-2^k alleles, respectively; endogenous in cells; host or cells: A20 B cell lymphoma (mitomycin C-treated or paraformaldehyde-fixed)", "outline": "(§1)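 Antigenic peptide, mitomycin C-treated APC, effector compound and allele-restricted T hybridoma cultured together for 24 h. Supernatant then transferred to interleukin-dependent HT-2 cells. T cell activation quantified as [3H]TdR uptake by HT-2 cells.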"}, "[2]": {"test_system": "murine E^k MHC class II allele", "assay": "simultaneous assay, E^k allele (CH27 APC, TPc9.1 T hybridoma, THMCC82-103 or PGCC81-104)", "assay_type": "cell-based", "outline": "as §1"}, "[3]": {"settings": "Table 1, AE peptide 16 μM (second value), 0.4 μM HEL106-116, supernatant 1:4"}, "[4]": {"settings": "Table 1, AE peptide 64 μM (first value), 0.4 μM HEL106-116, supernatant 1:4"}, "[5]": {"settings": "Table 4, AE109 homolog 64 μM, supernatant 1:2"}, "[6]": {"settings": "Table 1, AE peptide 16 μM (second value), 0.075 μM THMCC82-103, supernatant 1:2"}, "[7]": {"settings": "Table 1, AE peptide 64 μM (first value), 0.075 μM THMCC82-103, supernatant 1:2"}, "[8]": {"settings": "Table 15, AE peptide 16 μM, supernatant 1:4"}, "[9]": {"settings": "Table 16, AE peptide 4 μM, supernatant 1:8"}}, "note": "Non-standard residues stand in square brackets, D forms with d. hArg = N=C(N)NCCCC[C@H](N)C(=O)O; Cit = NC(=O)NCCC[C@H](N)C(=O)O; Orn = NCCC[C@H](N)C(=O)O", "data": [{"substance": "Ac-YRMKLPKSAK-NH2 [AE109]", "values": [{"measurement": "Times Baseline Response, E^d", "setting": "[1]; [3]", "value": 20.8}, {"measurement": "Times Baseline Response, E^d", "setting": "[1]; [4]", "value": 39.3}, {"measurement": "Times Baseline Response, E^d", "setting": "[1]; Table 2, AE peptide 64 μM, 0.05 μM HEL106-116, supernatant 1:2", "value": 25.5}, {"measurement": "Times Baseline Response, E^d", "setting": "[1]; [5]", "value": 3.3}, {"measurement": "Times Baseline Response, E^d", "setting": "[1]; Table 8, AE peptide 4 μM (third), supernatant 1:8", "value": 7.4}, {"measurement": "Times Baseline Response, E^d", "setting": "[1]; Table 8, AE peptide 16 μM (second), supernatant 1:8", "value": "17.6,"}, {"measurement": "Times Baseline Response, E^d", "setting": "[1]; Table 8, AE peptide 64 μM (first), supernatant 1:8", "value": "16.4,"}, {"measurement": "Times Baseline Response, E^d", "setting": "[1]; Table 10, AE peptide 16 μM (second value), supernatant 1:2", "value": 24.3}, {"measurement": "Times Baseline Response, E^d", "setting": "[1]; Table 10, AE peptide 64 μM (first value), supernatant 1:2", "value": 27.5}, {"measurement": "Times Baseline Response, E^k", "setting": "[2]; [6]", "value": 2.2}, {"measurement": "Times Baseline Response, E^k", "setting": "[2]; [7]", "value": 6.9}, {"measurement": "Times Baseline Response, E^k", "setting": "[2]; Table 2, AE peptide 64 μM, 0.05 μM PGCC81-104, supernatant 1:2", "value": 43.7}, {"measurement": "Times Baseline Response, E^k", "setting": "[2]; [5]", "value": 2.3}, {"measurement": "Times Baseline Response, E^k", "setting": "[2]; Table 8, AE peptide 4 μM (third), supernatant 1:4", "value": 1.0}, {"measurement": "Times Baseline Response, E^k", "setting": "[2]; Table 8, AE peptide 16 μM (second), supernatant 1:4", "value": "1.5,"}, {"measurement": "Times Baseline Response, E^k", "setting": "[2]; Table 8, AE peptide 64 μM (first), supernatant 1:4", "value": "4.3,"}, {"measurement": "Times Baseline Response, E^k", "setting": "[2]; Table 10, AE peptide 64 μM, supernatant 1:2 (first value)", "value": 66.0}, {"measurement": "Times Baseline Response, E^k", "setting": "[2]; Table 10, AE peptide 64 μM, supernatant 1:4 (second value)", "value": 56.3}]}, {"substance": "Ac-Y[Cit]MKLPKSAK-NH2 [AE131]", "values": [{"measurement": "Times Baseline Response, E^d", "setting": "[1]; [5]", "value": 2.8}, {"measurement": "Times Baseline Response, E^d", "setting": "[1]; [8]", "value": 1.6}, {"measurement": "Times Baseline Response, E^k", "setting": "[2]; [5]", "value": 0.8}, {"measurement": "Times Baseline Response, E^k", "setting": "[2]; [8]", "value": 4.1}]}, {"substance": "Ac-Y[Orn]MKLPKSAK-NH2 [AE130]", "values": [{"measurement": "Times Baseline Response, E^d", "setting": "[1]; [5]", "value": 0.9}, {"measurement": "Times Baseline Response, E^k", "setting": "[2]; [5]", "value": 1.1}]}, {"substance": "Ac-Y[hArg]MKLPKSAK-NH2 [AE132]", "values": [{"measurement": "Times Baseline Response, E^d", "setting": "[1]; [5]", "value": 1.8}, {"measurement": "Times Baseline Response, E^d", "setting": "[1]; [9]", "value": 3.9}, {"measurement": "Times Baseline Response, E^k", "setting": "[2]; [5]", "value": 5.5}, {"measurement": "Times Baseline Response, E^k", "setting": "[2]; [9]", "value": 2.2}]}, {"substance": "Ac-l RMKLPK-NH2 [AE160]", "values": [{"measurement": "Times Baseline Response, E^d", "setting": "[1]; Table 11, AE peptide 64 μM, supernatant 1:8", "value": 11.0}, {"measurement": "Times Baseline Response, E^k", "setting": "[2]; Table 11, AE peptide 64 μM, supernatant 1:4", "value": 1.7}]}, {"substance": "YRMKLPKSAKPVSQMR [AE101]", "values": [{"measurement": "Times Baseline Response, E^d", "setting": "[1]; [3]", "value": 4.9}, {"measurement": "Times Baseline Response, E^d", "setting": "[1]; [4]", "value": 13.6}, {"measurement": "Times Baseline Response, E^k", "setting": "[2]; [6]", "value": 0.8}, {"measurement": "Times Baseline Response, E^k", "setting": "[2]; [7]", "value": 1.0}]}]}
